# Source: patent US12129261B2, “Crystalline forms of a MCL-1 inhibitor, a process for their preparation and pharmaceutical compositions containing them” (LES LABORATOIRES SERVIER, priority 2018, dated 2024)
# What was measured:
# Format in all cases: physicochemical
# Solubility in water = settings: pH 7.5, water
# [1] = Water content by coulometric titration
# Method: The water content of crystalline Form M of Compound A obtained according to any one of the processes of Examples 1 to 6 was determined by coulometric titration using a Metrohm Coulometer composed of a 774 oven sample processor, a 774 SC controller, 831 KF coulometer and a 846 Dosing interface with Tiamo 1.2 software About 10 mg of accurately weighed micronized drug substance were introduced in vials heated for 10 minutes at 140° C. The water content of the powder was also determined by the coulometric method.
# [2] = Stability studies of crystalline Form A (storage, post-storage HPLC); settings: for (i) Polymorphic stability / (ii) chemical stability, drug substance content determined by LC: polyethylene bag in sealed quadruple laminated foil bag
# Excerpt: For all storage conditions and storage periods, 1.2 g of crystalline Form A of Compound A obtained according to the process of Example 15 were introduced in a specific packaging for post-storage HPLC analysis.
# [3] = Hygroscopicity by dynamic vapor sorption (DVS)
# Method: The hygroscopicity of crystalline Form M of Compound A obtained according to any one of the processes of Examples 1 to 6 was assessed using the dynamic vapor sorption (DVS) technique. 5 to 10 mg of the drug substance test sample were accurately weighed into a DVS sample pan working at 25° C. under controlled humidity. The mass of the sample was recorded at 50% RH (relative humidity) until reaching a stable value. Thereafter the mass variation was recorded between 50% RH and 90% RH at a rate of 10% per hour. Mass variations were also recorded between 90% RH and 0% RH and from 0% RH back to 50% RH. The relative humidity was maintained constant when it reached either 0 or 90% RH until the mass variation was less than 0.002% per minute within a limit of lime of 15 hours. An increase in sample mass of approximately 0.4% was recorded by DVS analysis when a sample was exposed to relative humidities from 50% to 90% at 25° C.
# [4] = Stability studies of crystalline Form M (storage, XRPD and post-storage HPLC); settings: for stability towards temperature and humidity: 6-month storage period under various conditions
# Method: For all storage conditions and storage periods, 20 mg of crystalline Form M of Compound A obtained according to any one of the processes of Examples 1 to 6 were introduced in a 30-mL vial for post-storage HPLC analysis (packaging: PVO=Opened glass container; VRAC PA=Double polyethylene bag).
# [5] = 25° C./60% RH, 24 months of storage
# [6] = 30° C./75% RH, 1 month of storage
# [7] = 40° C./75% RH, 6 months of storage
# [8] = 50° C./75% RH, 1 month of storage
# [9] = 25° C. 60% RH, VRAC PA, 12 months
# [10] = 30° C. 65% RH, VRAC PA, 12 months
# [11] = 40° C. 75% RH, VRAC PA, 3 months
# [12] = 40° C. 75% RH, VRAC PA, 6 months
smiles,measurement,setting,value
"COc1ccccc1-c1nccc(COc2ccccc2CC(Oc2ncnc3sc(-c4ccc(F)cc4)c(-c4ccc(OCCN5CCN(C)CC5)c(Cl)c4C)c23)C(=O)O)n1 [Compound A, (2R)-2-{[(5Sa)-5-{3-chloro-2-methyl-4-[2-(4-methylpiperazin-1-yl)ethoxy]phenyl}-6-(4-fluorophenyl)thieno[2,3-d]pyrimidin-4-yl]oxy}-3-(2-{[2-(2-methoxyphenyl)pyrimidin-4-yl]methoxy}phenyl)propanoic acid]",solubility,Solubility in water,< 1 µg/mL
"COc1ccccc1-c1nccc(COc2ccccc2CC(Oc2ncnc3sc(-c4ccc(F)cc4)c(-c4ccc(OCCN5CCN(C)CC5)c(Cl)c4C)c23)C(=O)O)n1 (centres unmarked) [Form MH, 2-{[5-{3-Chloro-2-methyl-4-[2-(4-methylpiperazin-1-yl)ethoxy]phenyl}-6-(4-fluorophenyl)thieno[2,3-d]pyrimidin-4-yl]oxy}-3-(2-{[2-(2-methoxyphenyl)pyrimidin-4-yl]methoxy}phenyl)propanoic acid]",water content,"[1]; coulometric method, powder after maturation in water",29.3%
"COc1ccccc1-c1nccc(COc2ccccc2CC(Oc2ncnc3sc(-c4ccc(F)cc4)c(-c4ccc(OCCN5CCN(C)CC5)c(Cl)c4C)c23)C(=O)O)n1 (centres unmarked) [crystalline Form A of Compound A, 2-{[5-{3-Chloro-2-methyl-4-[2-(4-methylpiperazin-1-yl)ethoxy]phenyl}-6-(4-fluorophenyl)thieno[2,3-d]pyrimidin-4-yl]oxy}-3-(2-{[2-(2-methoxyphenyl)pyrimidin-4-yl]methoxy}phenyl)propanoic acid]",stability on storage,[2]; 24-month storage period under 25° C./60% RH,remains stable
same,(i) Polymorphic stability,[2]; [5],(i) Form A
same,"(ii) chemical stability, drug substance content determined by LC",[2]; [5],(ii) 98.8% after % m/m
same,(i) Polymorphic stability,[2]; [6],(i) Form A
same,"(ii) chemical stability, drug substance content determined by LC",[2]; [6],(ii) 99.3% after % m/m
same,(i) Polymorphic stability,[2]; [7],(i) Form A
same,"(ii) chemical stability, drug substance content determined by LC",[2]; [7],(ii) 99.5% after % m/m
same,(i) Polymorphic stability,[2]; [8],(i) Form A
same,"(ii) chemical stability, drug substance content determined by LC",[2]; [8],(ii) 99.3% after % m/m
same,stability towards temperature and humidity,[2]; several months storage period under more severe conditions,still remains stable
"COc1ccccc1-c1nccc(COc2ccccc2CC(Oc2ncnc3sc(-c4ccc(F)cc4)c(-c4ccc(OCCN5CCN(C)CC5)c(Cl)c4C)c23)C(=O)O)n1 (centres unmarked) [crystalline Form M of Compound A, 2-{[5-{3-chloro-2-methyl-4-[2-(4-methylpiperazin-1-yl)ethoxy]phenyl}-6-(4-fluorophenyl)thieno[2,3-d]pyrimidin-4-yl]oxy}-3-(2-{[2-(2-methoxyphenyl)pyrimidin-4-yl]methoxy}phenyl)propanoic acid]",hygroscopicity according to the European Pharmacopoeia,[3],slightly hygroscopic
same,change to the crystalline form in X-ray powder diffractogram after water sorption/desorption/sorption cycle,[3]; DVS cycle 50-90-0-50% RH,no change
same,increase in sample mass (DVS),"[3]; between 0% to 50% RH, 25° C.",approximately 0.1%
same,decrease in sample mass (DVS),"[3]; between 90% to 0% RH, 25° C.",approximately 0.5%
same,increase in sample mass (DVS),[3]; relative humidities from 50% to 90% at 25° C.,approximately 0.4%
same,stability towards temperature and humidity,[4],very stable
same,stability towards temperature and humidity,[4]; listed as Crystalline Form M of Compound A,remains stable
same,stability on storage,[4]; 12-month storage period under 25° C./60% RH or 30° C./65% RH,remains stable
same,"(ii) chemical stability, drug substance content determined by LC","[4]; 25° C. 60% RH, VRAC PA, 3 months",(ii) 100.0% m/m
same,"(ii) chemical stability, drug substance content determined by LC","[4]; 25° C. 60% RH, VRAC PA, 6 months",(ii) 99.7% m/m
same,(i) Polymorphic stability,[4]; [9],(i) Form M
same,"(ii) chemical stability, drug substance content determined by LC",[4]; [9],(ii) 98.9% m/m
same,(i) Polymorphic stability,"[4]; 25° C. 90% RH, PVO, 3 months",(i) Form M
same,"(ii) chemical stability, drug substance content determined by LC","[4]; 25° C. 90% RH, PVO, 3 months",(ii) 99.7% m/m
same,(i) Polymorphic stability,"[4]; 25° C. 90% RH, PVO, 6 weeks",(i) Form M
same,"(ii) chemical stability, drug substance content determined by LC","[4]; 25° C. 90% RH, PVO, 6 weeks",(ii) 100.0% m/m
same,"(ii) chemical stability, drug substance content determined by LC","[4]; 30° C. 65% RH, VRAC PA, 3 months",(ii) 99.6% m/m
same,"(ii) chemical stability, drug substance content determined by LC","[4]; 30° C. 65% RH, VRAC PA, 6 months",(ii) 100.0% m/m
same,(i) Polymorphic stability,[4]; [10],(i) Form M
same,"(ii) chemical stability, drug substance content determined by LC",[4]; [10],(ii) 98.8% m/m
same,(i) Polymorphic stability,[4]; [11],(i) Form M
same,"(ii) chemical stability, drug substance content determined by LC",[4]; [11],(ii) 99.9% m/m
same,(i) Polymorphic stability,[4]; [12],(i) Form M
same,"(ii) chemical stability, drug substance content determined by LC",[4]; [12],(ii) 100.0% m/m
same,(i) Polymorphic stability,"[4]; 50° C. 75% RH, PVO, 3 months",(i) Form M
same,"(ii) chemical stability, drug substance content determined by LC","[4]; 50° C. 75% RH, PVO, 3 months",(ii) 100.1% m/m
same,(i) Polymorphic stability,"[4]; 50° C. 75% RH, PVO, 6 weeks",(i) Form M
same,"(ii) chemical stability, drug substance content determined by LC","[4]; 50° C. 75% RH, PVO, 6 weeks",(ii) 100.2% m/m
same,water content,[1]; vials heated for 10 minutes at 140° C.,0.1 % in weight
